Experimental data from patent US10501489B2, “C17-alkanediyl and alkenediyl derivatives of oleanolic acid and methods of use thereof” (REATA PHARMACEUTICALS, INC., priority 2012, dated 2019).

These compounds were tested on RAW264.7 mouse macrophages (assay: Suppression of IFNγ-induced NO production (nitric oxide production and cell viability assay)). Details: RAW264.7 cells, drug pre-treatment 2 hours, then recombinant mouse IFNγ 24 hours; Griess reagent; normalized to cell viability (WST-1).
Assay type: cell-based
Method: Assay results for the suppression of IFNγ-induced NO production are shown for several of the compounds of the present invention in Table 1 below. […] Details regarding this assay are provided in the Examples section below. Nitric Oxide Production and Cell Viability Assay. […] On the next day, cells were pre-treated with DMSO or drug (O-200 nM dose range) for 2 hours, and then treated with recombinant mouse IFNγ (R&D Systems) for 24 hours. Nitric Oxide concentration in media was determined using the Griess reagent system (Promega). Cell viability was determined using WST-1 reagent (Roche). IC50 values were determined based on the suppression of IFNγ induced Nitric Oxide production normalized to cell viability.

| SMILES | IC50 [nM] |
| --- | --- |
| CC1(C)CC[C@]2(CCC(=O)N3CC[C@H](O)C3)CC[C@]3(C)[C@H](C(=O)C=C4[C@@]5(C)C=C(C#N)C(=O)C(C)(C)[C@@H]5CC[C@]43C)[C@@H]2C1 [TX64047] | 3.3 |
| CC(=O)NNC(=O)CC[C@]12CCC(C)(C)C[C@H]1[C@H]1C(=O)C=C3[C@@]4(C)C=C(C#N)C(=O)C(C)(C)[C@@H]4CC[C@@]3(C)[C@]1(C)CC2 [TX64045] | 5.6 |
| CC1(C)CC[C@]2(CCC(=O)N3CCC(O)CC3)CC[C@]3(C)[C@H](C(=O)C=C4[C@@]5(C)C=C(C#N)C(=O)C(C)(C)[C@@H]5CC[C@]43C)[C@@H]2C1 [TX64048] | 1.2 |
| CC1(C)CC[C@]2(CCC(=O)N3CCOCC3)CC[C@]3(C)[C@H](C(=O)C=C4[C@@]5(C)C=C(C#N)C(=O)C(C)(C)[C@@H]5CC[C@]43C)[C@@H]2C1 [TX63763] | 0.4 |
| CC1(C)CC[C@]2(CCC(=O)OC3CCCCC3)CC[C@]3(C)[C@H](C(=O)C=C4[C@@]5(C)C=C(C#N)C(=O)C(C)(C)[C@@H]5CC[C@]43C)[C@@H]2C1 [TX64058] | 29 |
| CCNC(=O)OC[C@]12CCC(C)(C)C[C@H]1[C@H]1C(=O)C=C3[C@@]4(C)C=C(C#N)C(=O)C(C)(C)[C@@H]4CC[C@@]3(C)[C@]1(C)CC2 [TX63930] | 0.9 |
| CC1(C)CC[C@]2(CCC(=O)NCC(F)(F)F)CC[C@]3(C)[C@H](C(=O)C=C4[C@@]5(C)C=C(C#N)C(=O)C(C)(C)[C@@H]5CC[C@]43C)[C@@H]2C1 [TX63764] | 0.7 |
| CC1(C)CC[C@]2(COC(=O)N3CCCC3)CC[C@]3(C)[C@H](C(=O)C=C4[C@@]5(C)C=C(C#N)C(=O)C(C)(C)[C@@H]5CC[C@]43C)[C@@H]2C1 [TX63927] | 1.3 |
| CC(C)OC(=O)CC[C@]12CCC(C)(C)C[C@H]1[C@H]1C(=O)C=C3[C@@]4(C)C=C(C#N)C(=O)C(C)(C)[C@@H]4CC[C@@]3(C)[C@]1(C)CC2 [TX64043] | 21 |
| CC1(C)CC[C@]2(CCC(=O)Oc3ccccc3)CC[C@]3(C)[C@H](C(=O)C=C4[C@@]5(C)C=C(C#N)C(=O)C(C)(C)[C@@H]5CC[C@]43C)[C@@H]2C1 [TX64046] | 8.5 |
| CC1(C)CC[C@]2(CCC(=O)Nc3ccccc3)CC[C@]3(C)[C@H](C(=O)C=C4[C@@]5(C)C=C(C#N)C(=O)C(C)(C)[C@@H]5CC[C@]43C)[C@@H]2C1 [TX64059] | 1.4 |
| COCC[C@]12CCC(C)(C)C[C@H]1[C@H]1C(=O)C=C3[C@@]4(C)C=C(C#N)C(=O)C(C)(C)[C@@H]4CC[C@@]3(C)[C@]1(C)CC2 [TX63609] | 2.9 |
| CC1(C)CC[C@]2(CCC(=O)N3CCC3)CC[C@]3(C)[C@H](C(=O)C=C4[C@@]5(C)C=C(C#N)C(=O)C(C)(C)[C@@H]5CC[C@]43C)[C@@H]2C1 [TX63950] | 0.4 |
| CC1(C)CC[C@]2(CCC(=O)N3CCCC3)CC[C@]3(C)[C@H](C(=O)C=C4[C@@]5(C)C=C(C#N)C(=O)C(C)(C)[C@@H]5CC[C@]43C)[C@@H]2C1 [TX63949] | 0.6 |
| CC1(C)CC[C@]2(CCC(=O)N3CCN(C(=O)OC(C)(C)C)CC3)CC[C@]3(C)[C@H](C(=O)C=C4[C@@]5(C)C=C(C#N)C(=O)C(C)(C)[C@@H]5CC[C@]43C)[C@@H]2C1 [TX64124] | 3.4 |
| CC1(C)CC[C@]2(CCC(=O)Nc3ccccn3)CC[C@]3(C)[C@H](C(=O)C=C4[C@@]5(C)C=C(C#N)C(=O)C(C)(C)[C@@H]5CC[C@]43C)[C@@H]2C1 [TX64068] | 1.1 |
| COC(=O)CNC(=O)CC[C@]12CCC(C)(C)C[C@H]1[C@H]1C(=O)C=C3[C@@]4(C)C=C(C#N)C(=O)C(C)(C)[C@@H]4CC[C@@]3(C)[C@]1(C)CC2 [TX64052] | 2 |
| CCOC(=O)CC[C@]12CCC(C)(C)C[C@H]1[C@H]1C(=O)C=C3[C@@]4(C)C=C(C#N)C(=O)C(C)(C)[C@@H]4CC[C@@]3(C)[C@]1(C)CC2 [TX64042] | 10 |
| CC1(C)CC[C@]2(CCC(N)=O)CC[C@]3(C)[C@H](C(=O)C=C4[C@@]5(C)C=C(C#N)C(=O)C(C)(C)[C@@H]5CC[C@]43C)[C@@H]2C1 [TX64074] | 0.3 |
| CC1(C)CC[C@]2(CCO)CC[C@]3(C)[C@H](C(=O)C=C4[C@@]5(C)C=C(C#N)C(=O)C(C)(C)[C@@H]5CC[C@]43C)[C@@H]2C1 [TX63608] | 1.1 |
| CC(C)NC(=O)CC[C@]12CCC(C)(C)C[C@H]1[C@H]1C(=O)C=C3[C@@]4(C)C=C(C#N)C(=O)C(C)(C)[C@@H]4CC[C@@]3(C)[C@]1(C)CC2 [TX64064] | 0.4 |
| CONC(=O)CC[C@]12CCC(C)(C)C[C@H]1[C@H]1C(=O)C=C3[C@@]4(C)C=C(C#N)C(=O)C(C)(C)[C@@H]4CC[C@@]3(C)[C@]1(C)CC2 [TX64056] | 0.3 |
| CNC(=O)CC[C@]12CCC(C)(C)C[C@H]1[C@H]1C(=O)C=C3[C@@]4(C)C=C(C#N)C(=O)C(C)(C)[C@@H]4CC[C@@]3(C)[C@]1(C)CC2 [TX63770] | 0.2 |

| SMILES | IC50 [nM] |
| --- | --- |
| COC(=O)/C=C/[C@]12CCC(C)(C)C[C@H]1[C@H]1C(=O)C=C3[C@@]4(C)C=C(C#N)C(=O)C(C)(C)[C@@H]4CC[C@@]3(C)[C@]1(C)CC2 [TX63743] | 3.2 |
| CC1(C)CC[C@]2(CCCO)CC[C@]3(C)[C@H](C(=O)C=C4[C@@]5(C)C=C(C#N)C(=O)C(C)(C)[C@@H]5CC[C@]43C)[C@@H]2C1 [TX63744] | 1.1 |
| CCNC(=O)OCCC[C@]12CCC(C)(C)C[C@H]1[C@H]1C(=O)C=C3[C@@]4(C)C=C(C#N)C(=O)C(C)(C)[C@@H]4CC[C@@]3(C)[C@]1(C)CC2 [TX63983] | 5.4 |
| CC1(C)CC[C@]2(CCC(=O)NC(C)(C)C)CC[C@]3(C)[C@H](C(=O)C=C4[C@@]5(C)C=C(C#N)C(=O)C(C)(C)[C@@H]5CC[C@]43C)[C@@H]2C1 [TX64065] | 0.6 |
| CC1(C)CC[C@]2(CCC(=O)NCC(=O)O)CC[C@]3(C)[C@H](C(=O)C=C4[C@@]5(C)C=C(C#N)C(=O)C(C)(C)[C@@H]5CC[C@]43C)[C@@H]2C1 [TX64054] | 97 |
| COC(=O)CC[C@]12CCC(C)(C)C[C@H]1[C@H]1C(=O)C=C3[C@@]4(C)C=C(C#N)C(=O)C(C)(C)[C@@H]4CC[C@@]3(C)[C@]1(C)CC2 [TX63742] | 2 |
| CC1(C)CC[C@]2(CCC(=O)NC3CCCCC3)CC[C@]3(C)[C@H](C(=O)C=C4[C@@]5(C)C=C(C#N)C(=O)C(C)(C)[C@@H]5CC[C@]43C)[C@@H]2C1 [TX64057] | 0.8 |
| CC1(C)CC[C@]2(CCC(=O)OC3CCN(C(=O)OC(C)(C)C)CC3)CC[C@]3(C)[C@H](C(=O)C=C4[C@@]5(C)C=C(C#N)C(=O)C(C)(C)[C@@H]5CC[C@]43C)[C@@H]2C1 [TX64053] | 37 |
| CC1(C)CC[C@]2(CCC(=O)OC(C)(C)C)CC[C@]3(C)[C@H](C(=O)C=C4[C@@]5(C)C=C(C#N)C(=O)C(C)(C)[C@@H]5CC[C@]43C)[C@@H]2C1 [TX64067] | 14 |
| CC[C@]12CCC(C)(C)C[C@H]1[C@H]1C(=O)C=C3[C@@]4(C)C=C(C#N)C(=O)C(C)(C)[C@@H]4CC[C@@]3(C)[C@]1(C)CC2 [TX63403] | 8.6 |
| CN(C)C(=O)CC[C@]12CCC(C)(C)C[C@H]1[C@H]1C(=O)C=C3[C@@]4(C)C=C(C#N)C(=O)C(C)(C)[C@@H]4CC[C@@]3(C)[C@]1(C)CC2 [TX64060] | 0.4 |
| CCNC(=O)CC[C@]12CCC(C)(C)C[C@H]1[C@H]1C(=O)C=C3[C@@]4(C)C=C(C#N)C(=O)C(C)(C)[C@@H]4CC[C@@]3(C)[C@]1(C)CC2 [TX63768] | 0.3 |
| CC(=O)OCC[C@]12CCC(C)(C)C[C@H]1[C@H]1C(=O)C=C3[C@@]4(C)C=C(C#N)C(=O)C(C)(C)[C@@H]4CC[C@@]3(C)[C@]1(C)CC2 [TX63610] | 2.2 |
| CC1(C)CC[C@]2(COC(=O)n3ccnc3)CC[C@]3(C)[C@H](C(=O)C=C4[C@@]5(C)C=C(C#N)C(=O)C(C)(C)[C@@H]5CC[C@]43C)[C@@H]2C1 [TX63868] | 0.7 |
| CC1(C)CC[C@]2(CCC(=O)O)CC[C@]3(C)[C@H](C(=O)C=C4[C@@]5(C)C=C(C#N)C(=O)C(C)(C)[C@@H]5CC[C@]43C)[C@@H]2C1 [TX63762] | 1.2 |
| CC1(C)CC[C@]2(CCC(=O)N3CCNCC3)CC[C@]3(C)[C@H](C(=O)C=C4[C@@]5(C)C=C(C#N)C(=O)C(C)(C)[C@@H]5CC[C@]43C)[C@@H]2C1 [TX64135] | 1.5 |
| CCNC(=O)OCC[C@]12CCC(C)(C)C[C@H]1[C@H]1C(=O)C=C3[C@@]4(C)C=C(C#N)C(=O)C(C)(C)[C@@H]4CC[C@@]3(C)[C@]1(C)CC2 [TX63981] | 3 |
| CC1(C)CC[C@]2(CCC(=O)OCc3ccccc3)CC[C@]3(C)[C@H](C(=O)C=C4[C@@]5(C)C=C(C#N)C(=O)C(C)(C)[C@@H]5CC[C@]43C)[C@@H]2C1 [TX64066] | 20 |
| CC1(C)CC[C@]2(CCC(=O)N3CCC(F)(F)C3)CC[C@]3(C)[C@H](C(=O)C=C4[C@@]5(C)C=C(C#N)C(=O)C(C)(C)[C@@H]5CC[C@]43C)[C@@H]2C1 [TX64049] | 2 |
| CC1(C)CC[C@]2(COC(=O)N3CCOCC3)CC[C@]3(C)[C@H](C(=O)C=C4[C@@]5(C)C=C(C#N)C(=O)C(C)(C)[C@@H]5CC[C@]43C)[C@@H]2C1 [TX63926] | 0.7 |
| CC1(C)CC[C@]2(CCC(=O)OC3CCNCC3)CC[C@]3(C)[C@H](C(=O)C=C4[C@@]5(C)C=C(C#N)C(=O)C(C)(C)[C@@H]5CC[C@]43C)[C@@H]2C1 [TX64055] | 1.7 |
| CC1(C)CC[C@]2(CCC(=O)NC3COC3)CC[C@]3(C)[C@H](C(=O)C=C4[C@@]5(C)C=C(C#N)C(=O)C(C)(C)[C@@H]5CC[C@]43C)[C@@H]2C1 [TX64044] | 1.3 |
